Values quoted from earlier work as cited in patent publication US12453719B2, “Treatment method using a complex of angiotensin II receptor antagonist metabolite and NEP inhibitor” (Shenzhen Salubris Pharmaceuticals Co., Ltd., priority 2019, dated 2025).
Where two headings read alike, the source gives them in different places.

Tests used:
[1] = arithmetic mean
[2] = single oral administration of Losartan

AUC Losartan ([1]; single administration of Losartan 40 mg (n = 15)): 0.3915 µg·h/mL
AUC Losartan ([1]; single administration of Losartan 50 mg (n = 12)): 0.395 µg·h/mL
AUC Losartan ([1]; single administration of Losartan 80 mg (n = 8)): 0.9327 µg·h/mL
AUC Losartan ([1]; single administration of Losartan 120 mg (n = 8)): 1.2777 µg·h/mL
AUC Losartan ([1]; single administration of Losartan 150 mg (n = 8)): 1.678 µg·h/mL
AUC Losartan ([1]; single administration of Losartan 200 mg (n = 15)): 2.3716 µg·h/mL
AUC Losartan ([1]; single administration of Losartan 250 mg (n = 7)): 2.5673 µg·h/mL
AUC Losartan ([1]; single administration of Losartan 300 mg (n = 7)): 3.4924 µg·h/mL
in vivo EXP3174 exposure (AUC) relative to the prototype drug [2]: about four
SMILES: CCCCc1nc(Cl)c(CO)n1Cc1ccc(-c2ccccc2-c2nn[nH]n2)cc1 [Losartan]
